# Reference: US4492692A, “Cephalosporin derivatives” (Imperial Chemical Industries PLC, priority 1980, dated 1985)
# Key:
# Experiment in all cases: MIC by agar-dilution technique, Jewell and Pearmain agar
# Assay type in all cases: cell-based
# [1] = system: E. coli; conditions: Escherichia coli, Code No. A8, inoculum ~10^5 CFU
# Source text: (§1) The results set out in the following Table are illustrative of the biological activity of the compounds of the present invention. […] The following results are those obtained on a standard in vitro test system using Jewell and Pearmain agar medium. The antibacterial activity is described in terms of the minimum inhibitory concentration (MIC) determined by agar-dilution technique with an inoculum size of ~10^5 CFU.
# [2] = system: Ent. cloacae; conditions: Enterobacter cloacae, Code No. A13, inoculum ~10^5 CFU
# Source text: as §1
# [3] = system: K. aerogenes; conditions: Klebsiella aerogenes, Code No. A10, inoculum ~10^5 CFU
# Source text: as §1
# [4] = system: Proteus mirabilis; conditions: Code No. A18, inoculum ~10^5 CFU
# Source text: as §1
# [5] = system: Ps. aeruginosa; conditions: Pseudomonas aeruginosa, Code No. A21, inoculum ~10^5 CFU
# Source text: as §1
# [6] = system: Salmonella dublin; conditions: Salmonella enterica, Code No. A20, inoculum ~10^5 CFU
# Source text: as §1
# [7] = system: Serratia marescens; conditions: Code No. A16, inoculum ~10^5 CFU
# Source text: as §1
# [8] = system: Staph. aureus; conditions: Staphylococcus aureus, Code No. A6, inoculum ~10^5 CFU
# Source text: as §1
# [9] = system: Strep. pyogenes; conditions: Streptococcus pyogenes, Code No. A1, inoculum ~10^5 CFU
# Source text: as §1
SMILES,MIC [1] [µg/mL],MIC [2] [µg/mL],MIC [3] [µg/mL],MIC [4] [µg/mL],MIC [5] [µg/mL],MIC [6] [µg/mL],MIC [7] [µg/mL],MIC [8] [µg/mL],MIC [9] [µg/mL]
"CC(=O)OCC1=C(C(=O)O)N2C(=O)[C@@H](Nc3nc(Cc4ccccc4)c[nH]3)[C@H]2SC1 [Example 1, 7-(4-benzylimidazol-2-yl)amino-3-acetoxymethylceph-3-em-4-carboxylic acid]",0.25,128,1,32,> 256,0.5,64,32,
"Cc1nnc(SCC2=C(C(=O)O)N3C(=O)[C@@H](Nc4nc(CCNC(=O)C(F)(F)F)c[nH]4)[C@H]3SC2)s1 [Example 4.2, 7-[4-(2-trifluoroacetylaminoethyl)imidazol-2-yl]amino-3-(2-methyl-1,3,4-thiadiazol-5-yl)thiomethylceph-3-em-4-carboxylic acid]",0.12,16,0.12,16,> 256,0.25,4,32,16
"C=CCc1c[nH]c(N[C@@H]2C(=O)N3C(C(=O)O)=C(CSc4nnnn4C)CS[C@H]23)n1 [Example 6.1, 7-(4-allylimidazol-2-yl)amino-3-(1-methyl-1H-tetrazol-5-yl)thiomethylceph-3-em-4-carboxylic acid]",0.016,16,0.03,2,> 256,0.016,0.25,32,8
"CNC(=O)OCCCc1c[nH]c(N[C@@H]2C(=O)N3C(C(=O)O)=C(COC(C)=O)CS[C@H]23)n1 [Example 9.2, 7-[4-(3-methylcarbamoyloxypropyl)imidazol-2-yl]amino-3-acetoxymethylceph-3-em-4-carboxylic acid]",0.03,64,0.06,8,> 256,0.06,8,64,32
"O=C(O)C1=C(CSc2c[nH]nn2)CS[C@@H]2[C@H](Nc3nc(CCNC(=O)C(F)(F)F)c[nH]3)C(=O)N12 [Example 10, 7-[4-(2-trifluoroacetylaminoethyl)imidazol-2-yl]amino-3-(1H-1,2,3-triazol-4-yl)thiomethylceph-3-em-4-carboxylic acid]",0.03,16,0.06,2,> 256,0.016,16,64,64
"Cn1nnnc1SCC1=C(C(=O)O)N2C(=O)[C@@H](Nc3nc(CCC#N)c[nH]3)[C@H]2SC1 [Example 16, 7-[4-(2-cyanoethyl)imidazol-2-yl]amino-3-(1-methyl-1H-tetrazol-5-yl)thiomethylceph-3-em-4-carboxylic acid]",0.016,4,0.06,1,> 128,0.008,2,16,8
"O=C(O)C1=C(CSc2c[nH]nn2)CS[C@@H]2[C@H](Nc3nc(CCCNC(=S)NCC(F)(F)F)c[nH]3)C(=O)N12 [Example 80, 7-[4-(3-[3-(2,2,2-trifluoroethyl)thioureido]propyl)imidazol-2-yl]amino-3-(1H-1,2,3-triazol-4-yl)thiomethylceph-3-em-4-carboxylic acid]",1,4,2,4,> 128,0.5,64,32,32
